Retention_time and Drug excretion data for 2 compounds are collected here from ChEMBL document CHEMBL3525933 (Drug Metab Dispos, 2012).

Structures are written as SMILES.

Common to all, as to assay type: ADME, organism-based
The species named for one series is Rattus norvegicus. Description: Drug retention time in Wistar rat by HPLC-DAD analysis.
The nature of series [1]: Drug excretion in streptozotocin-induced diabetic Wistar rat urine treated with mangiferin at 400 mg/kg, po administered as single dose by HPLC-DAD analysis. Further details: dose 400 mg/kg, route oral. The following applies: in vivo.
Series [2] can be described thus: Drug excretion in conventional Wistar rat urine treated with mangiferin at 400 mg/kg, po administered as single dose by HPLC-DAD analysis. Further details: dose 400 mg/kg, route oral. Conditions: in vivo.
The nature of series [3]: Drug excretion in streptozotocin-induced diabetic Wistar rat feces treated with mangiferin at 400 mg/kg, po administered as single dose by HPLC-DAD analysis. Conditions: in vivo. Further details: dose 400 mg/kg, route oral.
Series [4] in a line: Drug excretion in conventional Wistar rat feces treated with mangiferin at 400 mg/kg, po administered as single dose by HPLC-DAD analysis. Further details: dose 400 mg/kg, route oral. The following applies: in vivo.

On to `O=c1c2cc(O)c(O)cc2oc2cc(O)cc(O)c12`, for which the Retention_time in the series listed under Rattus norvegicus is reported as 36 min. For the same compound, the Drug excretion result in series [1], in series [2], in series [3] and in series [4] was “metabolite_detected” throughout.

For the compound `O=c1c2cc(O)ccc2oc2cccc(O)c12`, the Retention_time in the series filed under Rattus norvegicus worked out at 40.4 min. For the same compound, in series [1], the Drug excretion entry is recorded as “metabolite_detected”.
